Experimental data taken from patent EP0648123B1, “INHIBITORS OF PROTEIN TYROSINE-PHOSPHATASE $g(a) FOR TREATMENT OF TUMORS” (NATIONAL UNIVERSITY OF SINGAPORE, priority 1992, dated 1994).
Values joined by “and” are separate entries in the source; they are usually repeats but may differ in a detail not shown here. Equal values may be shown once.

Assays:
REF-neo cells = assay: Effect of sodium orthovanadate on proliferation of control cells (cell count); format: cell-based, Fischer rat; details: 10% FCS
Experimental: (§1) 1. Cells were grown on 5 cm petri dishes in DME medium with 10% FCS for 48 h. After 48 h of growth, each dish of α-7, α-21, and α-29 cells contained about 0.4 x 10^5 to 0.6 x 10^5 cells, and each dish of REF-neo cells contained 1.8 x 10^5 cells. The medium was discarded, and fresh medium containing 10% FCS and the indicated concentration (below) of sodium orthovanadate was added to the cells. After 48 h of culture in this medium the cells from two replicate dishes were harvested and counted. […]
(§2) 2. Cells (control cells = REF-neo, PTPα-overexpressing cells = α-21) were grown on 5 cm petri dishes in DME medium with 10% FCS for 48 h. The medium was discarded, and fresh medium containing 10% FCS and the indicated concentration (below) of sodium orthovanadate was added to the cells. After 72 h of culture in this medium the cells from two replicate dishes were harvested and counted. The results are shown in Table 3 below and are essentially the same as in 1 above.

α-29 cells = assay: Effect of sodium orthovanadate on proliferation of PTPα-overexpressing cells (cell count); format: cell-based, Fischer rat; details: 10% FCS, 48 h
Experimental: as §1

α-7 cells = assay: as above; format: cell-based, Fischer rat; details: 10% FCS, 48 h
Experimental: as §1

α-21 cells [1] = assay: as above; format: cell-based, Fischer rat; details: for cell count, set #3 / cell count, set #2 (+0.1% FCS) / Number of cells/5 cm dish / cell count, set #1 (+10% FCS): α-21; for cell count, set #3 / Number of cells/5 cm dish / cell count, set #1 (+10% FCS): 10% FCS; for cell count, set #3: then another 48 h in 10% FCS without vanadate
Experimental: as §1, §2
3. PTPα-overexpressing cells (α-21) were grown for 48 h (to about 60% confluency) in DME medium containing 10% FCS. The medium was removed and replaced with medium containing the indicated concentration of sodium orthovanadate (below) and either 10% (sets #1 and #3) or 0.1% FCS (set #2). The cells were cultured for 48 h and counted (sets #1 and 2), or the medium was removed from set #3 and replaced with medium containing 10% FCS without sodium orthovanadate and cultured for another 48 h before counting. […]

α-21 cells [2] = assay: Colony forming ability in soft agar in the presence of sodium orthovanadate; format: cell-based, Fischer rat; details: 9 days
Experimental: The α-21 cells were grown in soft agar in the presence of the indicated concentration of sodium orthovanadate (below) on duplicate dishes. After 9 days the colonies were counted on each dish and the approximate size of the colonies noted. […]

[3] = system: REF α-21 PTPα-overexpressing cells; assay: Tumourigenesis by REF α-21 cells grown and injected with vanadate; format: in vivo, nude mice
Experimental: The α-21 cells were grown in DME medium containing 10% FCS and then in DME medium with 0.1% FCS in the presence of 50 µM sodium orthovanadate for 48 h. The cells were then harvested by trypsinisation, centrifuged to pellet the cells, and the cell pellet resuspended in DME containing 50 µM sodium orthovanadate. Other α-21 cells were grown and prepared in a similar manner, except in the absence of sodium orthovanadate throughout. The resuspended cells (plus or minus vanadate) were subcutaneously injected into nude mice (2 x 10^6 cells/mouse, 4 mice for each treatment), and nine days later the tumour size was measured.

**Q.** What does the source list for `[Na+].[Na+].[Na+].[O]=[V]([O-])([O-])[O-]` [Vanadate, sodium orthovanadate]?
**A.** Number of cells/5 cm dish (REF-neo cells; vanadate 5 µM, 48 h): 1.10 x 10^6 cells/5 cm dish; Number of cells/5 cm dish (REF-neo cells; vanadate 5 µM, 72 h): 1.90 x 10^6 cells/5cm dish; Number of cells/5 cm dish (REF-neo cells; vanadate 30 µM, 48 h): 1.04 x 10^6 cells/5 cm dish; Number of cells/5 cm dish (REF-neo cells; vanadate 30 µM, 72 h): 1.80 x 10^6 cells/5cm dish; Number of cells/5 cm dish (REF-neo cells; vanadate 60 µM, 48 h): 9.90 x 10^5 cells/5 cm dish; Number of cells/5 cm dish (REF-neo cells; vanadate 60 µM, 72 h): 1.60 x 10^6 cells/5cm dish; Number of cells/5 cm dish (REF-neo cells; vanadate 120 µM, 48 h): 7.60 x 10^5 cells/5 cm dish; Number of cells/5 cm dish (REF-neo cells; vanadate 120 µM, 72 h): 6.70 x 10^5 cells/5cm dish; Number of cells/5 cm dish (α-29 cells; vanadate 5 µM): 1.62 x 10^6 cells/5 cm dish; Number of cells/5 cm dish (α-29 cells; vanadate 30 µM): 7.20 x 10^5 cells/5 cm dish; Number of cells/5 cm dish (α-29 cells; vanadate 60 µM): 4.70 x 10^5 cells/5 cm dish; Number of cells/5 cm dish (α-29 cells; vanadate 120 µM): 2.10 x 10^5 cells/5 cm dish; Number of cells/5 cm dish (α-7 cells; vanadate 5 µM): 1.72 x 10^6 cells/5 cm dish; Number of cells/5 cm dish (α-7 cells; vanadate 30 µM): 1.41 x 10^6 cells/5 cm dish; Number of cells/5 cm dish (α-7 cells; vanadate 60 µM): 1.18 x 10^6 cells/5 cm dish; Number of cells/5 cm dish (α-7 cells; vanadate 120 µM): 5.80 x 10^5 cells/5 cm dish; toxicity to α-21 cells (resumption of proliferation once vanadate is removed) (α-21 cells [1]; comparison of cell numbers in sets #1 and 3): not irreversibly toxic; cell count, set #3 (α-21 cells [1]; vanadate 5 µM, 48 h): 2.90 x 10^6; cell count, set #2 (+0.1% FCS) (α-21 cells [1]; vanadate 5 µM, 48 h): 1.18 x 10^6; Number of cells/5 cm dish (α-21 cells [1]; vanadate 5 µM, 48 h): 1.42 x 10^6 cells/5 cm dish; cell count, set #1 (+10% FCS) (α-21 cells [1]; vanadate 5 µM, 48 h): 1.30 x 10^6; Number of cells/5 cm dish (α-21 cells [1]; vanadate 5 µM, 72 h): 1.20 x 10^6 cells/5cm dish; cell count, set #3 (α-21 cells [1]; vanadate 30 µM, 48 h): 1.46 x 10^6; cell count, set #2 (+0.1% FCS) (α-21 cells [1]; vanadate 30 µM, 48 h): 5.40 x 10^5; Number of cells/5 cm dish (α-21 cells [1]; vanadate 30 µM, 48 h): 7.00 x 10^5 cells/5 cm dish; cell count, set #1 (+10% FCS) (α-21 cells [1]; vanadate 30 µM, 48 h): 5.00 x 10^5; Number of cells/5 cm dish (α-21 cells [1]; vanadate 30 µM, 72 h): 4.80 x 10^5 cells/5cm dish; cell count, set #3 (α-21 cells [1]; vanadate 60 µM, 48 h): 9.60 x 10^5; cell count, set #2 (+0.1% FCS) (α-21 cells [1]; vanadate 60 µM, 48 h): 3.80 x 10^5; Number of cells/5 cm dish (α-21 cells [1]; vanadate 60 µM, 48 h): 3.70 x 10^5 cells/5 cm dish; cell count, set #1 (+10% FCS) (α-21 cells [1]; vanadate 60 µM, 48 h): 3.20 x 10^5; Number of cells/5 cm dish (α-21 cells [1]; vanadate 60 µM, 72 h): 2.60 x 10^5 cells/5cm dish; cell count, set #3 (α-21 cells [1]; vanadate 120 µM, 48 h): 5.20 x 10^5; cell count, set #2 (+0.1% FCS) (α-21 cells [1]; vanadate 120 µM, 48 h): 2.00 x 10^5; Number of cells/5 cm dish (α-21 cells [1]; vanadate 120 µM, 48 h): 1.60 x 10^5 cells/5 cm dish; cell count, set #1 (+10% FCS) (α-21 cells [1]; vanadate 120 µM, 48 h): 1.80 x 10^5; Number of cells/5 cm dish (α-21 cells [1]; vanadate 120 µM, 72 h): 1.76 x 10^5 cells/5cm dish; Number of colonies Average (α-21 cells [2]; vanadate 5 µM): 1260; Number of colonies Exp 1 (α-21 cells [2]; vanadate 5 µM): 1127; Number of colonies Exp 2 (α-21 cells [2]; vanadate 5 µM): 1392; Number of colonies Average (α-21 cells [2]; vanadate 10 µM): 1196; Number of colonies Exp 1 (α-21 cells [2]; vanadate 10 µM): 1458; Number of colonies Exp 2 (α-21 cells [2]; vanadate 10 µM): 934; Number of colonies Average (α-21 cells [2]; vanadate 20 µM): 667; Number of colonies Exp 1 (α-21 cells [2]; vanadate 20 µM): 692; Number of colonies Exp 2 (α-21 cells [2]; vanadate 20 µM): 641; Number of colonies Average (α-21 cells [2]; vanadate 40 µM): 292; Number of colonies Exp 1 (α-21 cells [2]; vanadate 40 µM): 312; Number of colonies Exp 2 (α-21 cells [2]; vanadate 40 µM): 271; Number of colonies Average (α-21 cells [2]; vanadate 80 µM): 82; Number of colonies Exp 1 (α-21 cells [2]; vanadate 80 µM): 90; Number of colonies Exp 2 (α-21 cells [2]; vanadate 80 µM): 73; average tumour size ([3]; 4 mice, α-21 cells grown and injected with 50 µM sodium orthovanadate, nine days later): 0.618 cm^2; tumour size ([3]; individual mice, α-21 cells grown and injected with 50 µM sodium orthovanadate, subcutaneous, 2 x 10^6 cells/mouse, nine days later): 0.30 x 0.8 cm = 0.24 cm^2 and 0.70 x 1.5 cm = 1.05 cm^2 and 0.40 x 0.7 cm = 0.28 cm^2 and 0.75 x 1.2 cm = 0.90 cm^2; tumours smaller than those arising from cells grown and injected in the absence of vanadate ([3]; on average, 50 µM sodium orthovanadate, nine days): 2.6 times
